Laboratory results: patent US20220386611A1, “NOVEL HETEROARYL-TRIAZOLE COMPOUNDS AS PESTICIDES” (Bayer Aktiengesellschaft, priority 2019, published 2022)

Key:
Format in all cases: in vivo
[1] = tested on: fall armyworm larvae (Spodoptera frugiperda); experiment: Spodoptera frugiperda spray test; conditions: in Zea mays, 168 h
Procedure: Spodoptera frukiperda—Spray Test
Solvent: 78.0 parts by weight acetone • 1.5 parts by weight dimethylformamide
Emulsifier: alkylarylpolyglycol ether
To produce a suitable preparation of active compound, 1 part by weight of active compound is mixed with the stated amount of solvents and is diluted with water, containing an emulsifier concentration of 1000 ppm, to the desired concentration. Further test concentrations are prepared by dilution with emulsifier containing water.
Maize (Zea mays) leaf sections are sprayed with a preparation of the active ingredient of the desired concentration. Once dry, the leaf sections are infested with fall armyworm larvae (Spodoptera frugiperda).
After 7 days mortality in % is determined. 100% means all caterpillars have been killed and 0% means none of the caterpillars have been killed.

[2] = tested on: adult cat fleas (Ctenocephalides felis); experiment: Ctenocephalides felis in-vitro contact test, adult cat flea; conditions: after 48 hours, read-out: efficacy (fleas dead or moribund); for pest or weed control at 1 µg/cm2, 100 g/ha: 1 μg/cm^2 (=100 g/ha); for pest or weed control at 5 µg/cm2, 500 g/ha: 5 μg/cm^2 (=500 g/ha)
In short: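 Compound in acetone coated onto glass tube inner walls (900 ppm giving 5 μg/cm^2); after drying, 5-10 adult fleas added and held at room temperature. After 48 h, fleas heat-stressed at 45-50° C for up to 5 min; immotile or uncoordinated fleas scored dead/moribund, giving % efficacy.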

[3] = tested on: Rhipicephalus microplus larvae (strain Parkhurst, resistant against synthetic pyrethroids); experiment: Rhipicephalus (Boophilus) microplus in-vitro contact test, larval cattle tick; conditions: 5 μg/cm^2 (=500 g/ha), after 48 hours, read-out: efficacy (larvae dead or moribund)
In short: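 Compound in acetone coated on glass tube inner walls; 900 ppm gives 5 μg/cm^2. Pyrethroid-resistant Parkhurst larvae (20-50 per tube) held at 27 °C, 85% relative humidity. Efficacy scored after 48 h from loss of negative geotaxis; 100% means all larvae dead or moribund.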

[4] = tested on: larvae of the banded cucumber beetle (Diabrotica balteata); experiment: Diabrotica balteata spray test; conditions: 168 h, 100 g/ha (=32 μg/well), after 7 days, wheat seeds, read-out: efficacy (seedlings grown like untreated, uninfected control)
In short: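 Germinated wheat seedlings sprayed with compound in acetone/DMF with emulsifier-containing water, then infested with 10-20 Diabrotica balteata larvae per unit. Efficacy scored after 7 days as seedling growth relative to untreated, uninfested control (100%) versus no growth (0%).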

[5] = tested on: adult unfed cat fleas (Ctenocephalides felis); experiment: Ctenocephalides felis oral test; conditions: 48 h
In short: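 About 20 adult unfed fleas fed through parafilm on cattle blood containing compound (DMSO concentrate diluted in blood); blood held at 37° C., fleas at room temperature. Mortality in % scored after 2 days (100% = all killed).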

[6] = tested on: adult brown dog ticks (Rhipicephalus sanguineus); experiment: Rhipicephalus sanguineus in-vitro contact test with adult brown dog ticks; conditions: 5 μg/cm^2 (=500 g/ha), after 48 hours, read-out: efficacy (ticks dead or moribund)
In short: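 Glass tubes are coated with compound dissolved in acetone, a 900 ppm solution yielding 5 μg/cm^2 on the inner surface. Adult ticks (5-10 per tube) are kept on the dry film at room temperature for 48 h, then those unable to escape 45-50° C heat are counted as dead or moribund.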

[7] = tested on: green peach aphid (Myzus persicae); experiment: Myzus persicae oral test; conditions: 120 h
In short: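 Compound in acetone was diluted with water, and 50 μL was mixed with 150 μL IPL41 insect medium (33% + 15% sugar). A mixed aphid population fed on this through a parafilm seal. Mortality % was scored after 5 days, where 100% means all aphids were killed.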

Row | SMILES | mortality at 100 g/ha [1] [%] | pest or weed control at 1 µg/cm2, 100 g/ha [2] [%] | pest or weed control at 5 µg/cm2, 500 g/ha [2] [%] | pest or weed control at 5 µg/cm2 [3] [%] | pest or weed control at 32 µg/disc, 100 g/ha [4] [%] | mortality at 100 ppm [5] [%] | pest or weed control at 5 µg/cm2, 500 g/ha [6] [%] | mortality at 4 ppm [7] [%]
1 | CC(NC(=O)c1cc(C(F)(F)F)cc(C(F)(F)F)c1)c1nc(I)nn1-c1ncccn1 (stereo not shown) [Example I-021] | 100 | 100 | 100 | 100 | 100 | 100 | 80 | 100
2 | CC(NC(=O)c1cc(C(F)(F)F)cc(C(F)(F)F)c1)c1nc(Br)nn1-c1ncccn1 (stereo not shown) [Example I-010] | 100 |  | 80 | 100 | 80 | 100 | 100 | 100
3 | CC(NC(=O)c1cc(C(F)(F)F)cc(C(F)(F)F)c1)c1nc(Cl)nn1-c1ncccn1 (stereo not shown) [Example I-002] | 100 | 100 |  | 100 | 100 | 100 | 80 | 100
